Test results taken from article PMC10794370, “Impact of plastic-related compounds on the gene expression signature of HepG2 cells transfected with CYP3A4” (Archives of Toxicology, 2023).
“Also recorded” adds a separate entry of the source. Where two headings read alike, the source gives them in different places.

Experiments:
Type in all cases: cell-based
[1] = Cytotoxicity (resazurin) growth inhibition assay; conditions: human
Procedure: The cytotoxicity of six compounds selected from in-silico screening was analyzed through a resazurin assay. Aliquots of 10^4 CYP3A4-overexpressing HepG2 cells were seeded per well into 96-well plates. Cells were treated with different concentrations of the selected compounds ranging from 0.003 to 100 µM in a total volume of 200 µL for 72 h. Then, 20 µL/well of resazurin 0.01% w/v (Sigma Aldrich, Taufkirchen, Germany) was added. The fluorescence intensity was measured with the Infinite M200 Pro-plate reader (Tecan, Crailsheim, Germany). Dose–response curves were generated from three independent experiments for each compound and 50% inhibition concentrations (IC50) were calculated. The analysis was represented using Prism 6 GraphPad Software (La Jolla, CA, USA).

[2] = system: CYP3A4-overexpressing HepG2 cells; assay: Flow cytometric cell cycle analysis; conditions: IC50 concentration, 24 h; for S-phase cells population: control 12.47 ± 0.83%; for cells in G2/M phase: control 18.70 ± 0.69%
Procedure: After 24 h of incubation, cells were fixed with ethanol and stored at −20 °C overnight. […] The measurement was performed using a BD LSRFortessa™ Cell Analyzer (Becton–Dickinson, Heidelberg, Germany). The results were analyzed using FlowJo software (Celeza, Olten, Switzerland).

[3] = system: CYP3A4-overexpressing HepG2 cells; assay: RNA-sequencing and gene set enrichment analysis; conditions: IC50 concentration, 24 h; for number of 'DNA-templated DNA replication' genes influenced by only one compound: Venn diagram; for activated pathway (gene set enrichment, GO Biological Process) / number of genes targeted in 'DNA-templated DNA replication' pathway / suppressed pathway (gene set enrichment, GO Biological Process) / number of genes affected in 'nuclear chromosome segregation' pathway / number of genes involved in 'inflammatory response' pathway: vs DMSO control
Procedure: Aliquots of 5 × 10^5 CYP3A4-overexpressing HepG2 cells were seeded into six-well-plates 24 h before treatment. Cells were treated with previously calculated IC50 concentrations of the compounds of interest. Control (ctrl) cells were treated with 0.2% DMSO. After 24 h incubation, the cells were harvested. RNA extraction was performed with the […] RNA Mini Kit (Invitek Molecular GmbH, Berlin, Germany), according to the manufacturer's instruction. Briefly, the cell pellet was lysed with 350 μL Lysis Solution and treated with β-mercaptoethanol. […] After several washing steps, RNA was eluted with 60 μL of Elution Buffer R and the concentration and purity measured with NanoDrop. Next-generation sequencing was conducted by […] GmbH, Mainz, Germany. The quality of the extracted RNA was verified by the company with a 2100 Bioanalyzer system (Agilent Technologies, CA, USA). After mRNA isolation and library preparation using the NEBNext^© UltraTM II Directional RNA Library Prep Kit (New England Biolabs, MA, USA), RNA sequencing of around 25 mio PE reads (2 × 12.5 M reads, 2 × 150 nt) was performed with the Illumina NextSeq 2000TM system. Each treatment and control group included two replicates. Quality control on the sequencing data was performed with the FastQC tool (0.12.0, https://www.bioinformatics.babraham.ac.uk/projects/fastqc/). Transcript abundance estimates were computed with Salmon (version 1.5.0) (Patro et al. [2017]) with a transcriptome index generated from the GENCODE (version 38), and subsequently summarized to gene level with the […] package (version 1.16.0) (Love et al. [2020]). The exploration, modelling, and interpretation of the expression data followed previously described protocols (Ludt et al. [2022]). Exploratory data analysis was executed with the pcaExplorer package (version 2.24.0) (Marini and Binder [2019]). Differential expression analysis was performed with DESeq2 package (version 1.38.3) (Love et al. [2014]), setting the false discovery rate (FDR) cutoff to 0.05. Accurate estimation of the effect sizes (described as log2 fold change) was finalized using the […] shrinkage estimator (version 1.20.0) (Zitovsky and Love [2020]). Subsequent analyses included Gene Ontology pathway enrichment by topGO (version 2.50.0) (Alexa et al. [2006])-using all expressed genes as background dataset and the ideal package (version 1.22.0) (Ludt et al. [2022])-and by clusterProfiler (version 4.6.0) (Wu et al. [2021]) with default settings using the log fold change as input. […] [2021]). Gene expression profiles were plotted as heatmaps (color-coded standardized Z scores for the expression values, after variance stabilizing transformation) to simplify comparison across samples.

[4] = 72 h, resazurin, mean ± SD of three independent experiments, read-out: IC50
[5] = CYP3A4-overexpressing HepG2 cells, 72 h, resazurin, mean ± SD of three independent experiments, read-out: IC50

**Q.** For O=C(OC1CCCCC1)c1ccccc1C(=O)OC1CCCCC1 [compound 1, dicyclohexyl phthalate], which IC50 at 72 h [1, 4] is on record?
**A.** 72.7 µM

**Q.** What does the source list for CC(c1cc(C(C)(C)C)cc(C(C)(C)C)c1O)c1cc(C(C)(C)C)cc(C(C)(C)C)c1O [compound 5, 1,1-bis(3,5-di-tert-butyl-2-hydroxyphenyl)ethane]?
**A.** S-phase cells population [2]: 10.88 ± 3.84%; cells in G2/M phase [2]: 25.13 ± 2.25%; number of 'DNA-templated DNA replication' genes influenced by only one compound [3]: 8 genes; activated pathway (gene set enrichment, GO Biological Process) [3]: autophagy; also recorded: process utilizing autophagic mechanism; also recorded: response to endoplasmic reticulum stress; also recorded: cytokine production; also recorded: Golgi vesicle transport; also recorded: response to growth factors; also recorded: cellular response to growth factor stimulation; number of genes targeted in 'DNA-templated DNA replication' pathway [3]: 68 genes; suppressed pathway (gene set enrichment, GO Biological Process) [3]: cholesterol metabolic process; also recorded: cholesterol biosynthetic process; also recorded: secondary alcohol biosynthetic process; also recorded: sterol metabolic process; also recorded: alcohol metabolic process; also recorded: small molecule metabolic process; also recorded: organic hydroxy compound metabolic process; IC50 at 72 h [1, 5]: 20 ± 1.68 µM

**Q.** Which IC50 at 72 h [1, 4] does the source give for CC(C)COC(=O)c1ccccc1C(=O)OCC(C)C [compound 2, diisobutyl phthalate] here?
**A.** > 100 µM

**Q.** Which S-phase cells population [2] does the source give for Cc1cc(Cc2cc(C)cc(C(C)(C)C)c2O)c(O)c(C(C)(C)C)c1 [compound 4, 2,2′-methylene bis(6-tert-butyl-4-methylphenol)] here?
**A.** 6.26 ± 1.31%

**Q.** What about the “cells in G2/M phase” value [2] of the same molecule?
**A.** 26.70 ± 8.40%

**Q.** What about the “number of 'DNA-templated DNA replication' genes influenced by only one compound” value [3] of the same molecule?
**A.** 10 genes

**Q.** What about the “activated pathway (gene set enrichment, GO Biological Process)” value [3] of the same molecule?
**A.** icosanoid metabolic process; also recorded: anion transport; also recorded: response to metal ions; also recorded: regulation of growth; also recorded: response to cytokines; also recorded: inflammatory response

**Q.** And the “number of genes affected in 'nuclear chromosome segregation' pathway” value [3]?
**A.** 103 genes

**Q.** And the “number of genes involved in 'inflammatory response' pathway” value [3]?
**A.** 76 genes

**Q.** And the “number of genes targeted in 'DNA-templated DNA replication' pathway” value [3]?
**A.** 78 genes

**Q.** And the “suppressed pathway (gene set enrichment, GO Biological Process)” value [3]?
**A.** regulation of chromosome segregation; also recorded: regulation of mitotic sister chromatid separation; also recorded: nuclear chromosome segregation; also recorded: chromosome organization; also recorded: metaphase/anaphase transition of mitotic cell cycle; also recorded: response to vitamin

**Q.** What about the IC50 at 72 h [1] of the same molecule?
**A.** 17.4 µM

**Q.** Which S-phase cells population [2] does the source give for Cc1cc(Cc2cc(C)cc(C3CCCCC3)c2O)c(O)c(C2CCCCC2)c1 [compound 6, 2,2′-methylene bis(6-cyclohexyl-4-methylphenol)] here?
**A.** 7.06 ± 5.94%

**Q.** And the “cells in G2/M phase” value [2]?
**A.** 25.77 ± 0.95%

**Q.** What about the “number of 'DNA-templated DNA replication' genes influenced by only one compound” value [3] of the same molecule?
**A.** 5 genes

**Q.** And the “activated pathway (gene set enrichment, GO Biological Process)” value [3]?
**A.** response to nutrients levels; also recorded: regulation of extent of growth; also recorded: response to wounding; also recorded: inflammatory response; also recorded: cytokine production

**Q.** And the “number of genes affected in 'nuclear chromosome segregation' pathway” value [3]?
**A.** 83 genes

**Q.** What about the “number of genes involved in 'inflammatory response' pathway” value [3] of the same molecule?
**A.** 90 genes

**Q.** And the “number of genes targeted in 'DNA-templated DNA replication' pathway” value [3]?
**A.** 72 genes

**Q.** What about the “suppressed pathway (gene set enrichment, GO Biological Process)” value [3] of the same molecule?
**A.** regulation of chromosome segregation; also recorded: regulation of mitotic sister chromatid separation; also recorded: nuclear chromosome segregation; also recorded: chromosome organization

**Q.** What about the IC50 at 72 h [1, 5] of the same molecule?
**A.** 18 ± 1.21 µM

**Q.** With CC(C)(C)CC(C)(C)c1ccc(O)c(-n2nc3ccccc3n2)c1 [compound 3, octrizole] as the molecule, how does the IC50 at 72 h [1, 5] read?
**A.** 63.8 ± 2.21 µM
